Results on two molecules are retold here after article PMC9008879, “Inhibition of CYP3A-mediated Midazolam Metabolism by Kaempferia Parviflora” (Food Safety, 2022).

SMILES strings stand for the structures.

In data set [1] the test system is CYP3A. Nature of the data set: Pre-incubation study (time-dependent / mechanism-based inhibition) of MDZ 1'-OH activity in human liver microsomes. The data set is classed as in vitro ADME. The note with it: for Change of MDZ 1'-OH activity after pre-incubation: HLM, pre-incubation 0-30 min with or without NADPH, KP extract 120 µg/ml, 5,7-DMF 30 µM, 3,5,7,3',4'-PMF 20 µM; for KI (inactivation) / kinact / kinact/KI: human, human liver microsomes, probe midazolam (MDZ) 10 µM, 1'-hydroxylation, HLM + NADPH, 10-fold dilution; for KI (inactivation): pre-incubation 5-30 min, read-out: KI (inhibitor concentration causing half-maximal inactivation); for kinact / kinact/KI: pre-incubation; for kinact: read-out: kinact (maximal inactivation rate constant) (converted); for kinact/KI: read-out: kinact/KI (efficiency of inactivation) (converted). The procedure:
Pre-incubation studies were performed to determine whether the metabolic intermediates produced by KP ingredients cause an MBI that inactivates CYP3A. KP extract (120 µg/ml), 5,7-DMF (30 µM), or 3,5,7,3’,4’-PMF (20 µM) was pre-incubated with HLM at 37°C for 10, 20, or 30 min, in the presence or absence of a NADPH-generating system. After the pre-incubation step, MDZ was added, and MDZ 1’-OH activity was assayed as described above.
In addition, another assay was designed to minimize the direct inhibition of CYP3A by KP ingredients by diluting the contents of the inactivation mixture 10-fold. As a primary incubation mixture, KP extract (30-120 µg/ml), 5,7-DMF (6-30 µM), or 3,5,7,3’,4’-PMF (5-20 µM) were pre-incubated in the presence of HLM and a NADPH-generating system at 37°C. Pre-incubation times were 5, 10, 15, or 20 min for KP extract, and 5, 10, 20, or 30 min for 5,7-DMF and 3,5,7,3’,4’-PMF. At determined time points, an aliquot of 50 µL of the primary reaction mixture was moved to 450 µL of the secondary incubation mixture containing 10 µM MDZ, and further incubated for 5 min. The oxidation of MDZ was analyzed as described above.
The decrease in the natural logarithm of the % residual MDZ 1’-OH activity against pre-incubation time was plotted for each inhibitor concentration, and the apparent inactivation rate constant (Kobs) values were described as the negative slopes of the lines. The maximal inactivation rate constant (kinact) and the inhibitor concentration causing half-maximal inactivation (KI) were estimated by double-reciprocal plot of the Kobs against the inhibitor concentration. The efficiency of inactivation was calculated as the ratio of kinact to KI.

Data set [2] relates to CYP3A. Details: method as in PMID 29550915. The conditions noted are these: mice, 5,7-DMF for ten days; cited from earlier work.
Data set [3] concerns CYP3A. As to the kind of experiment: Direct inhibition of CYP3A-mediated MDZ 1'-hydroxylation activity in human liver microsomes. The data set is classed as in vitro ADME. The note with it: HLM, 10 µM MDZ; 5,7-DMF 0.03-30 µM, 3,5,7,3',4'-PMF 0.02-20 µM, no pre-incubation. The procedure: An in vitro study was carried out to investigate the inhibitory effects of KP extract, 5,7-DMF, and 3,5,7,3’,4’-PMF on CYP3A-mediated MDZ 1’-hydroxylation (MDZ 1’-OH) activity.
The reaction mixtures, each with a total volume of 200 µL, consisting of 100 µg pooled HLM, 10 µM MDZ, and a nicotinamide adenine dinucleotide phosphate (NADPH)-generating system (1 mM NADPH, 8 mM glucose 6-phosphate, and 0.5U glucose 6-phosphate dehydrogenase) in 80 mM phosphate buffer (pH 7.4), were incubated at 37°C for 5 min in the presence of KP extract (40-80 µg/ml), 5,7-DMF (0.03-30 µM), or 3,5,7,3’,4’-PMF (0.02-20 µM). […] After centrifugation at 20,800 × g for 10 min at 4°C, the supernatant was injected into an HPLC apparatus equipped with a CAPCELLPAK C18 SG120 column (4.6 mm × 250 mm, Shiseido) and 1’-hydroxymidazolam was analyzed according to a previous report[20]^,[21]^). Control activity was determined under the same conditions with a reaction mixture containing water, 1% methanol, or 1% acetonitrile instead of KP extract, 5,7-DMF, or 3,5,7,3’,4’-PMF. Results were expressed as a percentage of each control activity. The inhibition mode and inhibition constant (Ki) values of KP extract on MDZ 1’-OH activity were calculated using nonlinear regression analysis using GraphPad Prism 7.03 (GraphPad Software Inc., La Jolla, CA, USA).
(Microsomes from liver hold many membrane-bound enzymes, among them those of drug oxidation.)

The subject of another data set is CYP3A4. Set-up: method as in PMID 17709371. The note with it: HLM and recombinant microsomes; cited from earlier work.

Broadly, the kinact is the maximal first-order rate at which the target is inactivated.

On to `COc1cc(OC)c2c(=O)cc(-c3ccccc3)oc2c1` [5,7-DMF, 5,7-dimethoxyflavone], for which, in the data set with CYP3A [1], the “Change of MDZ 1'-OH activity after pre-incubation” value was “time- and NADPH-dependent decrease”; the KI (inactivation) worked out at 10.7 µM; the kinact is 0.000433 s⁻¹; the kinact/KI is 40 M⁻¹ s⁻¹. Besides, in the data set with CYP3A [2], the “AUC of MDZ” value is “increased”, the “Elimination half-life (t1/2) of MDZ” value is given as “increased” and the “Hepatic CYP3A expression” value is “decreased”. The “Direct inhibition of MDZ 1'-OH activity” value with CYP3A [3] is “did not inhibit”. Further, in the data set on CYP3A4, the “Metabolizing CYP enzymes” value was “not metabolized by CYP3A4, but by CYP1A1 and CYP1A2”.

`COc1cc(OC)c2c(=O)c(OC)c(-c3ccc(OC)c(OC)c3)oc2c1` [3,5,7,3’,4’-PMF, 3,5,7,3’,4’-pentamethoxyflavone]: in the data set on CYP3A [1], the “Change of MDZ 1'-OH activity after pre-incubation” value was “time- and NADPH-dependent decrease”; the KI (inactivation) was 25.5 µM; the kinact is 2.67e-05 s⁻¹; the kinact/KI was 1.05 M⁻¹ s⁻¹. The “Direct inhibition of MDZ 1'-OH activity” value in the data set with CYP3A [3] was “did not inhibit”.
